Measurements taken from ChEMBL document CHEMBL1155696, “Enhanced cytotoxicity in a Z-photoisomer of a benzopyran derivative of propolis” (J Nat Prod, 2000).
Active and inactive are the calls of the source. The rule behind the calls is not given here.

Experiments:
[1] = Cytotoxicity against human HLC2 cells after 3 days by WST8 dye reduction assay; type: functional, cell-based; settings: HLC2, 72 h
[2] = Cytotoxicity against human HLC2 cells after 6 days by WST8 dye reduction assay; type: functional, cell-based; settings: HLC2, 144 h
[3] = tested on: HuH13; test: Cytotoxicity against human HuH13 cells; type: functional, cell-based
[4] = Photochemical stability exposed to visible light in methanol assessed as conversion to (Z)-2,2-Dimethyl-8-(3-methyl-2-butenyl)-benzopyran-6-propenoic acid after 7 days; settings: 168 h

Row | SMILES | IC50 [1] | IC50 [2] | Activity [3] | Activity [4]
1 | CC(C)=CCc1cc(/C=C\C(=O)O)cc2c1OC(C)(C)C=C2 | 34 µM | 10 µM | Active | –
2 | CC(C)=CCc1cc(/C=C/C(=O)O)cc2c1OC(C)(C)C=C2 [CULIFOLIN] | 230 µM | 100 µM | Active | 71%
